US20050095281A1, “Liposomal formulations and methods of use” (OPTIME Therapeutics, Inc., priority 2003, published 2005)

Columns and labels:
Lactobacillus = conditions: previously shown; cited from earlier work
[1] = test system: human cervical epithelium; assay: Histological evaluation of excised human cervical tissue ex vivo (Franz diffusion cell); conditions: 2% polysorbate 80 (data not shown)

| Compound | toxicity of preservatives to Lactobacillus (Lactobacillus) | histological changes in human cervical epithelium [1] |
| --- | --- | --- |
| COC(=O)c1ccc(O)cc1 [methylparaben] | nontoxic | – |
| CCCOC(=O)c1ccc(O)cc1 [propylparaben] | nontoxic | – |
| polysorbate 80 | – | Severe shedding of the epithelial layers |
